Experimental data published in US11058652B2, “Methods for treatment of Prader-Willi syndrome” (Yissum Research Development Company of the Hebrew …, priority 2016, dated 2021).

Tested on: Magel2-null mice
Experiment: Effect of HU-671 on preventing bone loss in female Magel2 mice (μCT of distal femoral metaphysis)
Format: in vivo
Settings: 0.5 mg/kg IP daily for 6 weeks
Description: The effect of HU-671 on preventing bone loss in female Magel2 mice and their littermates as controls was tested. Forty (40) 6-week old female mice were treated daily with HU-671 (0.5 mg/kg, IP) for a period of 6 weeks. Twenty-four (24) hours following the last administration of HU-671, a complete structural analysis of the trabecular and cortical bone in the distal femoral metaphysis was performed. The femora were fixed in phosphate buffered formalin for 48 hours and further kept at 70% ethanol. They were examined by a micro computed tomography (μCT) system. Scans were performed at 20-μm resolution in all three spatial dimensions. The mineralized tissues were differentially segmented by a global thresholding procedure.

CCCCCCCC/C=C\CCCCCCCC(=O)NC(C)(CO)C(=O)O (racemic) [HU-671, N-oleoyl α-methyl-DL-serine]
Tb.N (trabecular number): increasing | Tb.Th (trabecular thickness): enhancing | bone volume density (BV/TV): stimulated increase | connectivity density in the trabecular bone (Conn.D): significantly rescued | cortical parameters: improved | reduction in Cort.Th (cortical thickness): completely prevent | trabecular bone loss (vs vehicle-treated): completely prevented
